“Also recorded” adds a separate entry of the source.

Common to all, as to type: cell-based, human
One assay relates to p51A mRNA. Description: Northern blotting of the amount of p51 expressed in HCT116 cells after stimulation with drugs. The settings on record: 24 hours treatment, 1 μg/ml trichostatin A, Northern blotting of 20 μg RNA. The protocol:
A variety of stimulations including stimulation with a drug were applied to a cell line HCT116 derived from colon cancer to investigate changes in the amount expressed of p51 by Northern blotting. 200,000 cells of HCT116 cells were plated on a culture dish with a diameter of 60 mm, and cultured in the presence of 5% carbon dioxide at 37° C. for two days. The medium used was McCOY's 5A (manufactured by Nisseiken) to which fetal bovine serum (FBS) was added to a final concentration of 10% (referred to hereinafter as McCOY's 5A/10% FBS). Then it was treated with A23187 (0.1 μM, 1 μM), cisplatin (1 μg/ml, 10 μg/ml), CPTcAMP (0.1 μM, 1 μM), etoposide (10 μg/ml, 0.1 μg/ml), genistein (1 μM, 10 μM), ML-236B (1 μg/ml, 10 μg/ml), milurinone (1 μM, 10 μM), mitomycin C (5 μg/ml, 50 μg/ml), NKH477 (0.1 μM, 1 μM), okadaic acid (1 nM, 10 nM), radicicol (0.1 μg/ml, 1 μg/ml), staurosporin (1 nM, 10 nM), taxol (1 μg/ml, 10 μg/ml), trichostatin A (0.1 μg/ml, 1 μg/ml), radiation (50 J/m^2, 100 J/m^2), vitamin D3 (10 nM, 100 nM), vincristine (1 μg/ml, 10 μg/ml), and wortmannin (0.1 μM, […]), and further cultured in the presence of 5% carbon dioxide at 37° C. for 24 hours. Then, from the cells, RNA was prepared using ISOGEN (manufactured by Nippongene). […] Then, the membrane was analyzed on autoradiography.

In assay [1] the test system is p51 promoter. Briefly: Luciferase reporter assay in HCT116 cells transiently transfected with pGL2-neo/p51 promoter. The settings on record: HCT116, 1 μg/ml trichostatin A vs 0, 24 hours. The protocol: Subsequently, the following experiment was carried out in order to perform functional analysis of the p51 promoter region. 200,000 cells of HCT116 were plated on a culture dish with a diameter of 60 mm. The medium used was McCOY's 5A/10% FBS. These were cultured in the presence of 5% carbon dioxide at 37° C. for 48 hours. The medium was replaced with McCOY's 5A containing no serum. Subsequently, 2 μg each of pGL2-neo/p51 promoter or pGL2-neo vector was introduced. The plasmid was introduced using the lipofectamine plus reagent (manufactured by GIBCO BRL). Thus, 125 μl of McCOY's 5A and 8 μl of the plus solution were added to the plasmid solution, stirred well, and then incubated at room temperature for 15 minutes. To this solution, 125 μl of McCOY's 5A and 12 μl of lipofectamine solution were added, stirred well, and then incubated at room temperature for further 15 minutes. This was added to the HCT116 cells incubated by the above procedure, gently mixed, and cultured in the presence of 5% carbon dioxide at 37° C. for three hours to introduce plasmid. Subsequently, the medium was replaced with McCOY's 5A/10% FBS, and cultured in the presence of 5% carbon dioxide at 37° C. for 21 hours. […] For these cells, the luciferase activity was determined to investigate promoter activity. […] The luciferase activity was determined according to the following method. […]
Background: A reporter such as luciferase makes a cellular process visible.

Assay [2] relates to p51 promoter. Briefly: Luciferase assay in geneticin-selected HCT116/p51 promoter clones. The protocol: The medium in the cell culture dish was removed, and 5 ml of the cell lysis reagent (25 mM Tris-HCl, pH 7.8, 2 mM dithiothreitol, 2 mM CDTA, 0.2% triton X-100, 10% glycerol) was added and incubated at room temperature for 15 minutes.
As the plasmid-introduced cells, the HCT116 cell line was used. 500,000 cells of HCT116 cell were plated on a cuture dish with a diameter of 60 mm. The medium used was McCOY's 5A/10% FBS. These were cultured in the presence of 5% carbon dioxide at 37° C. for 48 hours. The medium was replaced with McCOY's 5A containing no serum. As the plasmid for introduction, two μg of pGL2-neo/p51 promoter was dissolved in 4 μl of the TE solution to prepare a plasmid solution. The plasmid was introduced using the lipofectamine plus reagent (manufactured by GIBCO BRL). Thus, 125 μl of McCOY's 5A and 8 μl of the plus solution were added to the plasmid solution, stirred well, and then incubated at room temperature for 15 minutes. To this solution, 125 μl of McCOY's 5A and 12 μl of the lipofectamine solution were added, stirred well, and then incubated at room temperature for further 15 minutes. This was added to the HCT116 cells cultured by the above procedure, gently mixed, and incubated in the presence of 5% carbon dioxide at 37° C. for three hours to permit the introduction of the plasmid. Subsequently, the medium was replaced with McCOY's 5A/10% FBS, and incubated in the presence of 5% carbon dioxide at 37° C. for 21 hours. Then, the cells were recovered from the culture dish with PBS containing 0.25% trypsin and 0.02% EDTA, and 1% amount thereof was plated onto a culture dish with a diameter of 100 mm. It was further cultured in McCOY's 5A/10% FBS medium in the presence of 5% carbon dioxide at 37° C. for further 72 hours, and then 1.2 mg/ml of geneticin (manufactured by Nacalai Tesque) was added as a selection drug. By replacing the medium every three days, and further culturing in the above condition for further two weeks, the cells into whose genes the plasmid gene was introduced, and became geneticin-resistant, were selected. Subsequently, 50 clones were isolated from the cell group that formed colonies on the dish, and were plated on a 24-well culture dish to continue being cultured.
Thus, the reactivity of these clones to trichostatin A was investigated by the following procedure. 500,000 cells each of the cloned cells were plated on a cuture dish with a diameter of 60 mm. The medium used was McCOY's 5A/10% FBS. These were cultured in the presence of 5% carbon dioxide at 37° C. for 48 hours. Then, trichostatin A was added to the two groups of cells to a final concentration of 0 or 0.1 μg/ml, and cultured in the presence of 5% carbon dioxide at 37° C. for 24 hours. For these cells, their luciferase activity was determined to examine the effect on the p51 promoter activity. The luciferase activity was determined according to the above method.

Consider `CC(/C=C/C(=O)NO)=C\[C@@H](C)C(=O)c1ccc(N(C)C)cc1` [trichostatin A], for which the “amount of p51A mRNA (specific band that reacts with p51A-derived cDNA)” value with p51A mRNA is on record as “transactivates p51; also recorded: specific band that reacts with p51A-derived cDNA was only observed”. The “luciferase activity (fluorescence/chemiluminescence intensity) of pGL2-neo/p51 promoter-introduced cells” value in the assay on p51 promoter [1] is “further remarkably enhanced; also recorded: markedly enhanced”. The “measured values of luciferase activity, clone #5” value in the assay on p51 promoter [2] (HCT116/p51 promoter clone #5, with TsA 0.1 μg/ml, 24 hours (without TsA 3.9)) is 29.5. Besides, the “measured values of luciferase activity, clone #9” value in the assay with p51 promoter [2] (HCT116/p51 promoter clone #9, with TsA 0.1 μg/ml, 24 hours (without TsA 1.0)) was determined as 33.3. The “measured values of luciferase activity, clone #17” value in the assay with p51 promoter [2] (HCT116/p51 promoter clone #17, with TsA 0.1 μg/ml, 24 hours (without TsA 17.0)) is recorded as 44.1. For the same molecule, the “measured values of luciferase activity, clone #18” value in the assay on p51 promoter [2] (HCT116/p51 promoter clone #18, with TsA 0.1 μg/ml, 24 hours (without TsA 6.8)) was found to be 14.0. The “luciferase activity of cloned cells” value with p51 promoter [2] (several clones, 0.1 μg/ml trichostatin A, 24 hours) was “significantly enhanced luciferase activity”.

For the origin of these results see patent US7038028B1, “Gene encoding promoter domain of tumor suppressor gene P51 and use thereof” (Toshiyuki Sakai, priority 1999, dated 2006).
